Data from patent US20240067639A1, “SMALL MOLECULES THAT TARGET THE RNA THAT CAUSES ALS” (EXPANSION THERAPEUTICS, INC., priority 2020, published 2024).
Read-outs that look alike come from different tables or passages of the source.

Tests used:
[1] = target: biotinylated r(G4C2)8 RNA and hnRNP H1-His6; experiment: TR-FRET hnRNP H binding assay
Protocol: TR-FRET hnRNP H Binding Assay. The TR-FRET assays were performed as previously described (Disney et al., 2012) except the final concentrations of biotinylated r(G4C2)8 (SEQ ID NO: 2) RNA and hnRNP H1-His6 were 80 nM and 75 nM, respectively. The RNA was folded by heating to 95° C. for 5 min in 1× Folding Buffer followed by slowly cooling to room temperature. The buffer was adjusted to 1×TR-FRET Assay Buffer followed by addition of compound. The mixture was incubated for 15 min at room temperature and then hnRNP H1-His6 was added. After an additional 15 min incubation, streptavidin-XL665 (HTRF, Cisbio Bioassays) and anti-His6-Tb (HTRF, Cisbio Bioassays) were added to a final concentration of 40 nM and 0.44 ng/μL, respectively. After incubating for 1 h, TR-FRET was measured as previously described. The IC50s were either calculated by fitting the equation (1) in Graphpad Prism.

[2] = system: RAN translation of (G4C2)66-No ATG-GFP in HEK293T cells; experiment: Cell-based assay of RAN translation inhibition (GFP/mCherry reporter); settings: Homo sapiens, HEK-293T, 24 h, read-out: RANT IC25
[3] = Table D, HEK293T, 24 h treatment
[4] = Table F, HEK293T, 24 h treatment

Row | Compound | Ki ([1]; Table D) | Ki ([1]; Table F) | further results
1 | COc1ccc2c(c1)c1cc3cnccc3c(C)c1n2C [Compound 1, 9-methoxy-5,6-dimethyl-6H-pyrido[4,3-b]carbazole] | > 200 µM |  | IC25 [2, 3]: > 5 µM
2 | Cc1c2ccncc2cc2c3cc(OCC4=NCCN4)ccc3n(C)c12 [Compound 3, 9-((4,5-dihydro-1H-imidazol-2-yl)methoxy)-5,6-dimethyl-6H-pyrido[4,3-b] carbazole] | 8.3 µM |  | IC25 [2, 3]: 0.1 µM
3 | Cc1c2ccncc2cc2c3cc(OCC(=O)NCCN)ccc3n(C)c12 [Compound 4a, N-(2-aminoethyl)-2-((5,6-dimethyl-6H-pyrido[4,3-b]carbazol-9-yl)oxy)acetamide] | 4.5 µM |  | IC25 [2, 3]: 0.9 µM
4 | Cc1c2ccncc2cc2c3cc(OCCN(C)C)ccc3n(C)c12 [Compound 5] | 20 µM |  | IC25 [2, 3]: 0.5 µM
5 | Cc1c2ccncc2cc2c3cc(OCCCN(C)C)ccc3n(C)c12 [Compound 6, 3-((5,6-dimethyl-6H-pyrido[4,3-b]carbazol-9-yl)oxy)-N,N-dimethylpropan-1-amine] | 32 µM |  | IC25 [2, 3]: > 5 µM
6 | Cc1c2ccncc2cc2c3cc(OCCCN4CCOCC4)ccc3n(C)c12 [Compound 8, 4-(3-((5,6-dimethyl-6H-pyrido[4,3-b]carbazol-9-yl)oxy)propyl)morpholine] | 11 µM |  | IC25 [2, 3]: 0.36 µM
7 | Cc1c2ccncc2cc2c3cc(OCCCN4CCCC4)ccc3n(C)c12 [Compound 9, 5,6-dimethyl-9-(3-(pyrrolidin-1-yl)propoxy)-6H-pyrido[4,3-b]carbazole] | 10 µM |  | IC25 [2, 3]: 0.27 µM
8 | CCN(CC)CCCOc1ccc2c(c1)c1cc3cnccc3c(C)c1n2C [Compound 10, 3-((5,6-dimethyl-6H-pyrido[4,3-b]carbazol-9-yl)oxy)-N,N-diethylpropan-1-amine] | 7.3 µM |  | IC25 [2, 3]: 3.2 µM
9 | Cc1c2ccncc2cc2c3cc(OCCN4CCOCC4)ccc3n(C)c12 [Compound 11, 4-(2-((5,6-dimethyl-6H-pyrido[4,3-b]carbazol-9-yl)oxy)ethyl)morpholine] | 16 µM |  | IC25 [2, 3]: 0.4 µM
10 | Cc1c2ccncc2cc2c3cc(OCC(N)=O)ccc3n(C)c12 [Compound 12, 2-((5,6-dimethyl-6H-pyrido[4,3-b]carbazol-9-yl)oxy)acetamide] | 18 µM |  | IC25 [2, 3]: 0.3 µM
11 | Cc1c2ccncc2cc2c3cc(OCCCN4CCN(C)CC4)ccc3n(C)c12 [Compound 23, 5,6-dimethyl-9-(3-(4-methylpiperazin-1-yl)propoxy)-6H-pyrido[4,3-b]carbazole] | 9.4 µM |  | IC25 [2, 3]: > 5 µM
12 | Cc1c2ccncc2cc2c3cc(C(=O)NCCN4CCCCC4)ccc3n(C)c12 [Compound 213, 5,6-dimethyl-N-(2-(piperidin-1-yl)ethyl)-6H-pyrido[4,3-b]carbazole-9-carboxamide] |  | 1.2 µM | IC25 [2, 4]: 1.7 µM
13 | Cc1c2ccncc2cc2c3cc(C(=O)NCCO)ccc3n(C)c12 [Compound 214, N-(2-hydroxyethyl)-5,6-dimethyl-6H-pyrido[4,3-b]carbazole-9-carboxamide] |  | 3.6 µM | IC25 [2, 4]: 1 µM
14 | COCCNC(=O)c1ccc2c(c1)c1cc3cnccc3c(C)c1n2C [Compound 215, N-(2-methoxyethyl)-5,6-dimethyl-6H-pyrido[4,3-b]carbazole-9-carboxamide] |  | 12 µM | IC25 [2, 4]: > 5 µM
15 | Cc1c2ccnc(C3CCCO3)c2cc2c3cc(C(=O)NCCN(C)C)ccc3n(C)c12 (stereo not shown) [Compound 216, N-(2-(dimethylamino)ethyl)-5,6-dimethyl-1-(tetrahydrofuran-2-yl)-6H-pyrido[4,3-b]carbazole-9-carboxamide] |  | 6.9 µM | IC25 [2, 4]: 1.7 µM
16 | Cc1c2ccncc2cc2c3cc(OCCN4CCS(=O)(=O)CC4)ccc3n(C)c12 [Compound 217, 4-(2-((5,6-dimethyl-6H-pyrido[4,3-b]carbazol-9-yl)oxy)ethyl)thiomorpholine 1,1-dioxide] |  | 8.5 µM | IC25 [2, 4]: > 5 µM
17 | Cc1c2ccncc2cc2c3cc(OC[C@H](C)N)ccc3n(C)c12 [Compound 218, (S)-1-((5,6-dimethyl-6H-pyrido[4,3-b]carbazol-9-yl)oxy)propan-2-amine] |  | 0.8 µM | IC25 [2, 4]: 0.84 µM
18 | Cc1c2ccncc2cc2c3cc(OCCN4CCCCCC4)ccc3n(C)c12 [Compound 219, 9-(2-(azepan-1-yl)ethoxy)-5,6-dimethyl-6H-pyrido[4,3-b]carbazole] |  | 1.2 µM | IC25 [2]: > 5 µM
19 | Cc1c2ccncc2cc2c3cccc(OCCN(C)C)c3n(C)c12 [Compound 220, 2-((5,6-dimethyl-6H-pyrido[4,3-b]carbazol-7-yl)oxy)-N,N-dimethylethanamine] |  | 2.3 µM | IC25 [2]: > 5 µM
20 | Cc1c2ccnc(C(=O)N[C@H](C)CN(C)C)c2cc2c3ccc(OCCCN4CCN(C)CC4)cc3n(C)c12 [Compound 222, (R)—N-(1-(dimethylamino)propan-2-yl)-5,6-dimethyl-8-(3-(4-methylpiperazin-1-yl)-propoxy)-6H-pyrido[4,3-b]carbazole-1-carboxamide] |  | 6.1 µM | IC25 [2, 4]: > 5 µM

Row | Compound | Ki ([1]; Table D) | Ki ([1]; Table F) | further results
21 | Cc1c2ccncc2cc2c3cc(OCCN4CCC(C)(C)CC4)ccc3n(C)c12 [Compound 223, 9-(2-(4,4-dimethylpiperidin-1-yl)ethoxy)-5,6-dimethyl-6H-pyrido[4,3-b]carbazole] |  | 3.1 µM | IC25 [2, 4]: 3.8 µM
22 | Cc1c2ccncc2cc2c1sc1ccc(OCCN(C)C)cc12 [Compound 224, N,N-dimethyl-2-((5-methylbenzo[4,5]thieno[2,3-g]isoquinolin-9-yl)oxy)ethanamine] |  | 8.6 µM | IC25 [2]: > 5 µM
23 | Cc1c2ccncc2cc2c3cc(OCc4ncc[nH]4)ccc3n(C)c12 [Compound 251, 9-((1H-imidazol-2-yl)methoxy)-5,6-dimethyl-6H-pyrido[4,3-b]carbazole] |  | 19 µM | 
24 | Cc1c2ccncc2cc2c3cc(OCCN4CCC(F)(F)CC4)ccc3n(C)c12 [Example 40, 9-(2-(4,4-difluoropiperidin-1-yl)ethoxy)-5,6-dimethyl-6H-pyrido[4,3-b]carbazole] | > 200 µM |  | 
25 | Cc1c2ccncc2cc2c3cc(OCC4=NCCN4)ccc3n(CCCN3CCN(C)CC3)c12 [Example 43, 9-((4,5-dihydro-1H-imidazol-2-yl)methoxy)-5-methyl-6-(3-(4-methylpiperazin-1-yl)propyl)-6H-pyrido[4,3-b]carbazole] | 27 µM |  | 
26 | Cc1c2ccncc2cc2c3cc(OCCCC(=N)N)ccc3n(C)c12 [Example 44a, 4-((5,6-dimethyl-6H-pyrido[4,3-b]carbazol-9-yl)oxy)butanimidamide] | 10 µM |  | 
27 | COC(=O)CCCOc1ccc2c(c1)c1cc3cnccc3c(C)c1n2C [Example 44b, methyl 4-((5,6-dimethyl-6H-pyrido[4,3-b]carbazol-9-yl)oxy)butanoate] | > 200 µM |  | 
28 | Cc1c2ccncc2cc2c3cc(OCC(=N)N)ccc3n(C)c12 [Example 45, 2-((5,6-dimethyl-6H-pyrido[4,3-b]carbazol-9-yl)oxy)acetimidamide] | 21 µM |  | 
29 | Cn1c2ccc(OCCN3CCOCC3)cc2c2cc3cnccc3cc21 [Example 46, 4-[2-(6-methylpyrido[4,3-b]carbazol-9-yl)oxyethyl]morpholine] | 4.6 µM |  | 
30 | COc1ccc2[nH]c3c(c2c1)C(=O)c1cnccc1C3=O [Example 47, 9-methoxy-5H-pyrido[4,3-b]carbazole-5,11(6H)-dione] | > 200 µM |  | 
31 | COc1ccc2[nH]c3c(C)c4ccncc4c(O)c3c2c1 [Example 48, 9-methoxy-5-methyl-6H-pyrido[4,3-b]carbazol-11-ol] | > 200 µM |  | 
32 | COc1ccc2[nH]c3c(C)c4cnccc4cc3c2c1 [Example 49, 7-methoxy-11-methyl-10H-pyrido[3,4-b]carbazole] | > 200 µM |  | 
33 | Cc1c2ccncc2cc2c3ccc(OCCN4CCOCC4)cc3n(C)c12 [Example 53, 4-(2-((5,6-dimethyl-6H-pyrido[4,3-b]carbazol-8-yl)oxy)ethyl)morpholine] | > 200 µM |  | 
34 | Cc1c2ccncc2cc2c3cc(OCC(=O)NCCCN(C)C)ccc3n(C)c12 [Example 58, 2-((5,6-dimethyl-6H-pyrido[4,3-b]carbazol-9-yl)oxy)-N-(3(dimethylamino)propyl)-acetamide] | 1 µM |  | 
35 | Cc1c2ccncc2cc2c3cc(OCC(=O)NCCN(C)C)ccc3n(C)c12 [Example 59, 2-((5,6-dimethyl-6H-pyrido[4,3-b]carbazol-9-yl)oxy)-N-(2-(dimethylamino)ethyl)-acetamide] | 1.3 µM |  | 
36 | COc1cccc2c1c1cc3c(C(=O)N[C@H](C)CN(C)C)nccc3c(C)c1n2C [Example 65, (R)—N-(1-(dimethylamino)propan-2-yl)-10-methoxy-5,6-dimethyl-6H-pyrido[4,3-b]carbazole-1-carboxamide] | 4.2 µM |  | 
37 | COc1ccc2oc3c(C)c4ccncc4cc3c2c1 [Example 66, 9-methoxy-5-methyl-benzofuro[2,3-g]isoquinoline] | > 200 µM |  | 
38 | COc1ccc2sc3c(C)c4ccncc4cc3c2c1 [Example 67, 9-methoxy-5-methyl-benzothiopheno[2,3-g]isoquinoline] | > 200 µM |  | 
39 | Cc1c2ccncc2cc2c1sc1ccc(OCCN3CCOCC3)cc12 [Example 81, 4-[2-(5-methylbenzothiopheno[2,3-g]isoquinolin-9-yl)oxyethyl]morpholine] | > 200 µM |  | 
